{"source": "patent US8283375B2", "about": "“2, 6 xylidine derivatives for the treatment of pain” (Krisani Biosciences (P) Ltd., priority 2011, dated 2012)", "system": "spinal nerve ligation model for neuropathic pain in rats", "assay": "Von Frey test for mechanical allodynia in Chung spinal nerve (L5-L6) ligation model", "format": "in vivo, SD rats", "conditions": "150 mg/kg; for analgesic efficacy on mechanical allodynia compared to Vehicle (conclusion in words): b105: 2 and 4.5 hours post-treatment on day 14 and 4.5 hours on day 21, b109: 2 hours post-treatment on days 14 and 21", "source_text": "Experimental animals were male SD rats with a starting weight of 230-250 grams. Total number of animals were n=90 for surgery and n=60 after selection. The animals were caged in groups of 3 in a temperature and humidity controlled area. They were maintained on a 12 hr light/dark cycle and had ad libitum access to food and water.\nNeuropathic pain inducement was done by following principles of Chung induced model. The SD rats were anesthetized using ketamine/xylazine sodium. The rats were shaved and placed in prone position for surgery. The L5-L6 spinal nerves were surgically litigated. The rats were returned to their cages for recuperation and recovery under comfortable warm conditions using heat lamps.\nAfter seven days of surgery a pre selection was performed. Animals that indicate signs of post operative pain were to be selected to proceed. Pain is detected by observing when one or more of the criteria are met as follows. Licking of the operated paw, accompanied by gentle biting or pulling on the nails with the mouth; placing the leg in the air; bearing weight on the side contra-lateral to the nerve injury; deformities of the hind paw and abnormal posture and walking; weakness of the left hind paw. […] However, the animal must be able to move its leg to ensure that the L4 spinal nerve is intact. If the animal cannot move its leg, it was excluded from the study.\nSecond level of selection of the rats was done on day 14 after the surgery. Von Frey test was performed on the preselected rats after day 7 on day 14. Using Von Frey methodology, animals with a pain threshold of ≦26 g for the operated leg will be included in the study. After this selection step, the animals were randomly placed into their experimental groups.\nBlank, positive control and test compound: Blank was just the medium used for dissolving other compounds. The positive control was Gabapentin and the test compound was the final compound of formula 1 discussed in the instant disclosure. Three types of experimental groups were formed. Different types of chemicals such as Vehicle and Control were used to determine the efficacy of the chemicals as well comparison of the instant disclosed compound of formula 1, with a positive control was performed. The final compound of the instant disclosure was administered at 100 mg/kg and 150 mg/kg body weight as two different groups. The Gabapentin was administered at 150 mg/kg body weight.\nOn day 14 blank compound and final compound will be administered once daily starting on study day 14 through study day 21. Gabapentin, the positive control, will be administered 2 hours prior to pain testing on study days 14 and 21. […]\nPain Response Evaluation: Pain response was evaluated using Von Frey test for mechanical allodynia. […]"}
{"molecule": "NCC1(CC(=O)O)CCCCC1", "note": "[Gabapentin, reference compound]", "values": [{"measurement": "duration of analgesic activity / activity compared with gabapentin (in words)", "value": "active only at 2 hours post dosing"}]}
{"molecule": "CCN(CCOC(=O)CCCCC1CCSS1)CC(=O)Nc1c(C)cccc1C", "note": "(stereo not shown) [KRB-5b]", "values": [{"measurement": "duration of analgesic activity / activity compared with gabapentin (in words)", "value": "prolonged analgesic activity compared to gabapentin"}, {"measurement": "analgesic efficacy on mechanical allodynia compared to Vehicle (conclusion in words)", "value": "effective as a pain analgesic item"}, {"measurement": "analgesic efficacy on mechanical allodynia compared to Vehicle (conclusion in words)", "setting": "listed as compound of formula 1", "value": "effective in treating the spinal nerve ligation model for neuropathic pain in rats"}]}
